System: HSV-1 DNA
Assay: Immunoprecipitation of nuclear protein with anti-hnRNPA2B1 antibody and PCR detection of HSV-1 DNA
Type: binding, HSV-1 (strain F)
Settings: mouse primary peritoneal macrophages, 2 hours after HSV-1 infection, PCR
Experimental: Obtaining the primary peritoneal macrophages of mice: C57BL/6 mice (6-8 weeks old, female, Shanghai Bikai Experimental Animal Co., Ltd.) were intraperitoneally injected with 2 ml of 3% mercaptoacetate (Sigma Aldrich) solution once. Three days later, the mice were sacrificed by cervical dislocation, and the abdominal cavity was washed with serum-free medium, sucked out and centrifuged to obtain cells.
The primary peritoneal macrophage cells were cultured in DMEM medium. After HSV-1 (strain F, ATCC) infection for 2 hours, nuclear protein was isolated and immunoprecipitated by anti-hnRNPA2B1 antibody (Santa Cruz) or control antibody (IgG, Santa Cruz). HSV-1 DNA was detected by PCR.

## hnRNPA2B1: heterogeneous nuclear ribonucleoprotein A2B1; endogenous nuclear protein of mouse macrophages precipitated by anti-hnRNPA2B1 antibody
  binding of hnRNPA2B1 to HSV-1 DNA: bound
